Consider 6 compounds from PubChem BioAssay (NCI).

Several values for one entry are separate records, joined by “and”; a condition that tells them apart may be missing. Equal values may be shown once.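 Following 48 hours of exposure in 96-well plates, responses at five concentrations were used to interpolate endpoints linearly. Abbreviation: GI50, concentration required for 50% inhibition of growth. TGI is the concentration that stops growth completely.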 Bounds are passed on as bounds.

Among the test systems are A498 renal; DU-145 prostate; HCT-116 colon; NCI-H226 lung; OVCAR-4 ovarian; RXF 393 renal; SF-268 CNS; SK-OV-3 ovarian; SNB-75 CNS; SR leukemia.
What all share (test): NCI tumour cell line growth inhibition, 48 h

Consider `COc1ccc(-c2nc(-c3cc(OC)cc(OC)c3)[nH]c2-c2ccc(OC)cc2)cc1`, for which the GI50 in the test with A498 renal is greater than 100 µM; in the test with DU-145 prostate it was 65.5 µM; with HCT-116 colon, 8.06 µM; with NCI-H226 lung, 5.47 µM; in the test on OVCAR-4 ovarian, 4.03 µM; in the test with RXF 393 renal it was greater than 100 µM. Further, the GI50 with SF-268 CNS is greater than 100 µM; in the test with SK-OV-3 ovarian it was greater than 100 µM; in the test on SNB-75 CNS, greater than 100 µM; in the test with SR leukemia, 2.43 µM. The TGI in the test on A498 renal, with DU-145 prostate, in the test with HCT-116 colon, in the test with NCI-H226 lung, in the test on OVCAR-4 ovarian and in the test on RXF 393 renal was greater than 100 µM each time. The TGI is greater than 100 µM with SF-268 CNS, greater than 100 µM with SK-OV-3 ovarian, greater than 100 µM in the test on SNB-75 CNS and 8.74 µM with SR leukemia.

As to `Cn1c(=O)c2c(nc(C(=N)SCC(=O)O)n2C)n(C)c1=O`, the TGI was 66.7 µM in the test with A498 renal; greater than 100 µM with DU-145 prostate; greater than 100 µM in the test on HCT-116 colon; greater than 100 µM in the test on NCI-H226 lung; 85.6 µM in the test on OVCAR-4 ovarian; greater than 100 µM in the test on RXF 393 renal. For the same compound, the TGI was greater than 100 µM with SF-268 CNS, greater than 100 µM in the test on SK-OV-3 ovarian, greater than 100 µM in the test on SNB-75 CNS and 80.2 µM in the test with SR leukemia.

With `O=C1Nc2ccccc2/C1=C1\CCc2cc(O)ccc21`, the GI50 in the test on A498 renal is 5.65 µM; in the test with DU-145 prostate, 11.4 µM; in the test with HCT-116 colon, 8.79 µM; in the test on NCI-H226 lung it was 12.4 µM; in the test with OVCAR-4 ovarian, 7.02 µM; in the test on RXF 393 renal it was 9.85 µM. The GI50 in the test with SF-268 CNS was 10.1 µM; with SK-OV-3 ovarian it was 8.5 µM; in the test on SNB-75 CNS, 8.06 µM; with SR leukemia, 4.25 µM. The TGI was 17.8 µM in the test with A498 renal; greater than 25 µM with DU-145 prostate; greater than 25 µM in the test on HCT-116 colon; greater than 25 µM in the test on NCI-H226 lung; greater than 25 µM with OVCAR-4 ovarian; greater than 25 µM in the test with RXF 393 renal. Besides, the TGI with SF-268 CNS, in the test with SK-OV-3 ovarian, with SNB-75 CNS and with SR leukemia was greater than 25 µM each time.

For the compound `COc1ccc(-c2ccc3c(N4CCOC[C@@H]4C)nc(N4CCOC[C@@H]4C)nc3n2)cc1CO`, the GI50 was 0.00121 µM and < 0.01 µM with A498 renal; 0.00584 µM and 0.0416 µM with DU-145 prostate; 0.00858 µM and 0.0734 µM in the test on HCT-116 colon; 0.004 µM and 0.0139 µM in the test with NCI-H226 lung; 0.00414 µM and < 0.0142 µM with OVCAR-4 ovarian; 0.00244 µM and < 0.0105 µM with RXF 393 renal. Also, the GI50 in the test on SF-268 CNS was 0.00537 µM and 0.0359 µM; with SK-OV-3 ovarian, 0.00324 µM and 0.0138 µM; with SNB-75 CNS it was 0.0039 µM and < 0.01 µM; in the test on SR leukemia it was 0.00529 µM and 0.027 µM. Moreover, the TGI in the test with A498 renal was 0.00302 µM and < 0.0234 µM; in the test with DU-145 prostate, greater than 100 µM; with HCT-116 colon, greater than 100 µM; in the test on NCI-H226 lung, 0.186 µM and 0.312 µM; with OVCAR-4 ovarian, 0.0382 µM and 0.12 µM; in the test on RXF 393 renal it was 0.00676 µM and 0.0643 µM. In addition, the TGI with SF-268 CNS is > 3.31 µM and 51.1 µM; in the test with SK-OV-3 ovarian, 0.0479 µM and 0.116 µM; in the test with SNB-75 CNS, 0.0237 µM and 0.0359 µM; in the test on SR leukemia, greater than 100 µM.

Take `c1ccc2c(c1)[nH]c1c2cc[n+]2cc3c(cc12)CCCC3`: the GI50 with A498 renal is 3.48 µM; in the test on HCT-116 colon, 3.3 µM; in the test with OVCAR-4 ovarian, 2.14 µM; with RXF 393 renal it was 2.98 µM; in the test on SNB-75 CNS it was 3.07 µM; in the test with SR leukemia, 2.51 µM. The TGI in the test with A498 renal was 13.9 µM and > 100 µM; in the test with DU-145 prostate it was 11 µM and 17 µM; with HCT-116 colon, 14.2 µM and 4.66 µM; in the test on NCI-H226 lung, 7.61 µM and 5.77 µM; with OVCAR-4 ovarian, 7.6 µM and 5.73 µM; with RXF 393 renal, 12.5 µM. The TGI in the test with SF-268 CNS is 12.8 µM and 18.3 µM; in the test on SK-OV-3 ovarian it was 14.2 µM and 14.4 µM; in the test with SNB-75 CNS it was 12.9 µM and 35.9 µM; with SR leukemia, 7.52 µM and 4.19 µM.

As to `COc1ccc(-c2nccn2-c2ccc(OC)cc2)cc1`, the GI50 was 14.4 µM in the test on A498 renal; 33.3 µM in the test on DU-145 prostate; 16.4 µM in the test with HCT-116 colon; 18.6 µM with NCI-H226 lung; 30.2 µM in the test with OVCAR-4 ovarian; 17.9 µM in the test with RXF 393 renal. Moreover, the GI50 with SF-268 CNS is 22.9 µM; in the test with SK-OV-3 ovarian, 22.8 µM; with SNB-75 CNS, 5.06 µM; in the test with SR leukemia, 0.64 µM. The TGI with A498 renal is 55.9 µM; in the test on DU-145 prostate, greater than 93.8 µM; in the test on HCT-116 colon, 44.4 µM; with NCI-H226 lung it was greater than 70.8 µM; with OVCAR-4 ovarian, greater than 100 µM; in the test on RXF 393 renal, greater than 80.5 µM. Moreover, the TGI in the test on SF-268 CNS is 74.4 µM; with SK-OV-3 ovarian, 93.6 µM; with SNB-75 CNS, 30.3 µM; in the test on SR leukemia it was 30.8 µM.
